Laboratory results taken from patent publication US20230210757A1, “IMPROVEMENTS IN OR RELATING TO ORGANIC COMPOUNDS” (Givaudan SA, priority 2020, published 2023).

Columns and labels:
[1] = test system: skin explants (Caucasian, Asian, African); assay: Ex vivo whitening efficacy on skin explants (Fontana Masson staining, expert scoring of basal cells); type: cell-based, human; conditions: topical daily 14 days, vs untreated, extract 3%, Phenylethyl resorcinol 0.5%, hydroquinone 2%
Experimental: Skin fragments from 3 Asian, 3 African and 3 Caucasian subjects were cut into 1 cm^2 pieces and washed three times using antibiotics. Subcutaneous fat and lower dermis were mechanically removed under a stereomicroscope using a surgical scalpel. Skin biopsies were placed with the epithelium uppermost at an air/liquid interface on culture inserts (filter pore size 12 μm; Costar, VWR International, Fontenay-sous-Bois, France). These inserts were set on twelve wells plate for 14 days at 37° C. in a humidified incubator with 5% CO2. Medium was added to the wells so that the surface of the medium was levelled with the filter. Organ cultures were conserved with Dulbecco's […] (Invitrogen Corporation, Paisley, UK) containing antibiotic, L-glutamine, bovine pituitary extract, growth factors and fetal calf serum (DAP, Neuf-Brisach, France). […] elongata extract 3% (unpurified extract), Phenylethyl resorcinol 0.5% and hydroquinone 2% (SIGMA H9003) as positive control were topically applied daily during 14 days on the epidermis of the skin fragments, in comparison with untreated skin. […] For testing the depigmentation product, the melanin pigment present in the melanocytes and in the contiguous keratinocytes of the basal cell layer of the epidermis from treated skin in comparison with untreated skin is evaluated. Samples were formalin-fixed at day 14 and paraffin-embedded Sections (4 μm) were then stained by Fontana Masson silver method for melanin (see example 4iii). A quantitative numeration of cells containing melanin pigments was made under an optical microscope at ×40 magnification on about 300 basal cells of the epidermis, Two types of cells were counted: • score 1: unpigmented cells or cells presenting rare melanin pigments isolated in the cytoplasm • score 3: cells presenting important melanin pigment in all over the cytoplasm Epidermal melanin content was calculated as the percentage of the epidermal cells in each scoring.

[2] = test system: hyperpigmentation spots on face; assay: Clinical test, hyperpigmented spots on face of African volunteers, Mexameter analysis; type: in vivo, human
Experimental: The measurement is based on the absorption principle. The MEXAMETER MX 18 probe emits radiation of three defined wavelengths. A receiver measures the reflection of the light reflected by the skin. The position of the transmitter and receiver ensures that only diffuse light is measured. With a defined amount of emitted light the amount of light absorbed by the skin can be calculated. Melanin is measured by two wavelengths. The wavelengths were chosen according to the different absorption peaks of the melanin pigments. For the measurement of erythema (redness of skin), two different wavelengths are used to measure the absorption capacity of the epidermis. One of them corresponds to the absorption spectrum of haemoglobin. The other wavelength was chosen in order to have other pigments influencing the colour of the skin.
The study was a double-blind, randomized and placebo controlled study. The assessment was based on an inter-subject comparison between the results obtained with cream HEX at 3% (active product), cream Phenylethyl resorcinol at 0.3% and the cream placebo. The measurements were taken in controlled-atmosphere at a temperature of 20° C. and a humidity of 40%. This study was performed on 70 volunteers (aged from 19 to 57 years, having hyperpigmentation spots on their faces.
The study was carried out on 3 groups. A cream formula was applied twice daily on full face. Evaluation was carried out before treatment and after 28 and 56 days. Groups 1 and 2, with 25 volunteers each, have applied placebo and HEX at 3%, respectively, and group 3 with 20 volunteers has applied Phenylethyl Resorcinol at 0.3%.

[3] = test system: pigmented ageing spots on hands; assay: Clinical test, pigmented spots on hands of Caucasian volunteers, Mexameter analysis; type: in vivo, human; conditions: cream 0.3% twice daily
Experimental: The study was a double-blind, randomized and placebo controlled study. The assessment was based on an intra-subject comparison between the results obtained with cream HEX at 3% (active product), cream Phenylethyl resorcinol at 0.3% and the cream placebo. The measurements were taken in controlled-atmosphere at a temperature of 21±1° C. and a humidity of 50*10%. This study was performed on 39 volunteers (healthy Caucasian woman aged from 50 to 75 years, mean age: 61.7±5.6 years) having pigmented ageing spots on their hands.
The study was carried out on 2 groups of around 20 volunteers each (39 volunteer in total aged from […]). A cream formula was applied twice daily on hands. Evaluation was carried out before treatment and after 28 and 56 days. Group 1 has applied placebo on one hand and HEX at 3% on the other hand, and group 2 has tested HEX at 3% on one hand versus Phenylethyl Resorcinol at 0.3% on the other hand.
The measurement is based on the absorption principle. The MEXAMETER MX 18 probe emits radiation of three defined wavelengths. A receiver measures the reflection of the light reflected by the skin. The position of the transmitter and receiver ensures that only diffuse light is measured. With a defined amount of emitted light the amount of light absorbed by the skin can be calculated. Melanin is measured by two wavelengths. […]

[4] = test system: pigmented ageing spots on face; assay: Clinical test, face of Asian volunteers, spectrocolorimeter measurement; type: in vivo, human; conditions: HEX cream 3% or Phenylethyl resorcinol cream 0.3% twice daily, after 28 and 56 days
Experimental: (§1) The study was a double-blind, randomized and placebo controlled study. The assessment was based on an inter-subject comparison between the results obtained with cream HEX at 3% (active product), cream Phenylethyl resorcinol at 0.3% and the cream placebo. The measurements were taken in controlled-atmosphere at a temperature of 21±1° C. and a humidity of 50±10%. This study was performed on 72 volunteers (healthy Asian woman aged from 45 to 85 years), having pigmented ageing spots on their faces.
The study was carried out on 2 groups of 36 volunteers each (72 volunteer in total). A cream formula was applied twice daily on face. Evaluation was carried out before treatment and after 28 and 56 days. Group 1 has applied placebo on one side of the face and HEX at 3% on the other side of the face Group 2 has tested HEX at 3% on one side of the face versus Phenylethyl Resorcinol at 0.3% on the other side of the face.
Skin colorimetric measurement was done with a MINOLTA CM700-d Spectrophotometer® equipped with a 8 mm diameter head. The Spectrophotometer® converts colours perceived by human to a digital code composed of three parameters:
L*: for clarity (from dark to light),
a*: for the green-to-red spectrum,
b*: for the blue-to-yellow spectrum.
a* and b* are chrominance parameters and L* is a luminance parameter. […]

[5] = test system: pigmented ageing spots on face; assay: Clinical test, pigmented spots on face of Asian volunteers, VISIA ageing spot analysis; type: in vivo, human; conditions: cream 0.3% twice daily
Experimental: as §1
The study was carried out on 2 groups of 36 volunteers each (72 volunteer in total). A cream formula was applied twice daily on face. Evaluation was carried out before treatment and after 28 and 56 days. Group 1 has applied placebo on one side of the face and HEX at 3% on the other side of the face Group 2 has tested HEX at 3% on one side of the face versus Phenylethyl Resorcinol at 0.3% on the other side of the face. […]
Under standard light, visible spots can be evaluated, in particular by visualisation of brown or red skin lesions including freckles, acne scars, hyper-pigmentation and vascular lesions. With cross polarized light in combination with Canfield's RBX® Technology brown spots can be evaluated, in particular by analysis of subsurface melanin conditions. […] The results are given in number of lesions, which is a count of lesions detected by the device, regardless of their size or intensity.

SMILES	change of percentage of unpigmented cells ([1]; African skin explants)	change of percentage of very pigmented cells ([1]; African skin explants)	change of percentage of unpigmented cells ([1]; Asian skin explants)	change of percentage of very pigmented cells ([1]; Asian skin explants) [%]	change of percentage of unpigmented cells ([1]; Caucasian skin explants)	change of percentage of very pigmented cells ([1]; Caucasian skin explants)	change of melanin content relative to D0 ([2]; HEX cream 3% or Phenylethyl Resorcinol cream 0.3% twice daily, after 56 days)	change of melanin content relative to D0 ([2]; cream 0.3% twice daily, after 28 days) [%]	change of melanin content versus placebo ([2]; cream 0.3%, after 28 days) [%]	reduction of skin redness compared with placebo [3]	melanin reduction efficacy compared with HEX at 3% ([3]; 28 and 56 days)	b* parameter on face pigmented spots area [4]	reduction of brown spots compared with HEX [5]	reduction of visible spots compared with HEX at 3% [5]
Oc1ccc(O)cc1 [Hydroquinone, hydroquinone]	didn't show any significant results	didn't show any significant results	+54.1%	−25.8	didn't show any significant impact	didn't show any significant impact	–	–	–	–	–	–	–	–
CC(c1ccccc1)c1ccc(O)cc1O (centres unmarked) [Phenylethyl resorcinol, phenylethyl resorcinol]	+91.7%	−22.7%	+110.7%	−29.2	+38.8%	−4.2%	not maintained after 56 days	−2.1	−4.3	same efficacy as what we obtained with the placebo	Same melanin reduction efficacy as with HEX at 3%	significant reduction of b* parameter	slightly better than HEX	efficacy very close to those obtained with HEX at 3%
